What was measured:
[1] = Cardiotoxicity in dog assessed as effect on QRS interval at 30 to 100 mg/kg administered as single dose by electrophysiology assay; format: toxicity, organism-based, Canis lupus familiaris; details: in vivo
Salmonella typhimurium [2] = assay: Genotoxicity in Salmonella typhimurium in presence of S9 fraction by Ames test; format: toxicity, organism-based; details: salmonella enterica subsp. enterica serovar typhimurium
[3] = Inhibition of recombinant full length HCV genotype 1a H77 NS3/4A protease preincubated for 30 mins followed by substrate addition measured by FRET assay; parameters: species or system Hepatitis C virus (isolate H77)
[4] = Drug uptake in cannulated Sprague-Dawley rat liver at 15 mg/kg administered via oral gavage measured at 24 hrs post dose by LC/MS/MS analysis; format: ADME, organism-based; details: read-out: Drug uptake
[5] = Drug uptake in rabbit heart atrium measured after 60 mins; format: ADME, Oryctolagus cuniculus, Cardiac atrium; details: read-out: Drug uptake
[6] = Toxicity in dog at 20 to 200 mg/kg administered as single dose; format: organism-based, Canis lupus familiaris; details: in vivo
[7] = Half life in human liver microsomes; format: ADME
Hepatitis C virus [8] = assay: Antiviral activity against HCV genotype 2a JHF-1 in HCV replicon cells assessed as reduction in viral RNA replication by luciferase reporter gene assay; details: genotype 2a JFH-1
[9] = Cardiotoxicity in anesthetized rabbit assessed as prolongation of QTcv interval at 30 mg/kg, iv administered as 10 mins infusion by electrophysiology assay; format: toxicity, organism-based, Oryctolagus cuniculus; details: in vivo
[10] = Cardiotoxicity in rabbit heart assessed as change in sinoatrial node recovery time at 10 uM perfused for 20 mins measured for 1 min by electrophysiology method relative to control; format: toxicity, tissue-based, Oryctolagus cuniculus
[11] = Cardiotoxicity in dog assessed as prolongation of QTcf interval at 30 to 100 mg/kg administered as single dose by electrophysiology assay; format: toxicity, organism-based, Canis lupus familiaris; details: in vivo
[12] = AUC in cannulated Sprague-Dawley rat plasma at 15 mg/kg administered via oral gavage measured up to 24 hrs post dose by LC/MS/MS analysis; format: ADME, organism-based; parameters: dose 15 mg/kg, time < 24 hr, route oral
Neutrophil elastase = target: T1, Neutrophil elastase (Homo sapiens, UniProt P08246); assay: Inhibition of human leukocyte elastase
T1 sequence (P08246 whole entry): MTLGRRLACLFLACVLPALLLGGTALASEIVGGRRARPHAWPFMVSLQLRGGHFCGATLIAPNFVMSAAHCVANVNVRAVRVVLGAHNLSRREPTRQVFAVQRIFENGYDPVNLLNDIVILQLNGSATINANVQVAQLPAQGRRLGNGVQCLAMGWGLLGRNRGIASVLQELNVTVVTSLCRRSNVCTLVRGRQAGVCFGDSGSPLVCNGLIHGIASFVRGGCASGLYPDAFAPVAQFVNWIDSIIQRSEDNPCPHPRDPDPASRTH

[13] = Inhibition of recombinant full length HCV genotype 2a HC-J6 NS3/4A protease preincubated for 30 mins followed by substrate addition measured by FRET assay; parameters: species or system Hepatitis C virus subtype 2a
[14] = Cytotoxicity against human HEK293T cells assessed as decrease in cell viability
[15] = Cytotoxicity against human HuH7 cells assessed as decrease in cell viability
[16] = Inhibition of recombinant full length HCV genotype 4a ED43 NS3 protease in genotype 1b con1 replicon cells by luciferase reporter gene assay; details: Hepatitis C virus
[17] = Cardiotoxicity in anesthetized rabbit assessed as prolongation of QTcf interval at 30 mg/kg, iv administered as 10 mins infusion by electrophysiology assay; format: toxicity, organism-based, Oryctolagus cuniculus; details: in vivo
[18] = Inhibition of recombinant full length HCV genotype 4a ED43 NS3/4A protease preincubated for 30 mins followed by substrate addition measured by FRET assay; parameters: species or system Hepatitis C virus ED43
[19] = Inhibition of recombinant full length HCV genotype 2b HC-J8 NS3 protease in genotype 2a replicon cells by luciferase reporter gene assay; format: cell-based, Hepatitis C virus subtype 2b; details: Hepatitis C virus
[20] = Cardiotoxicity in dog assessed as effect on heart rate at 30 to 100 mg/kg administered as single dose by electrophysiology assay; format: toxicity, organism-based, Canis lupus familiaris; details: in vivo
[21] = Cytotoxicity against human MRC5 cells assessed as decrease in cell viability
[22] = Half life in cannulated Sprague-Dawley rat plasma at 5 mg/kg, iv administered as 10 mins infusion by LC/MS/MS analysis; format: ADME, organism-based
[23] = Cardiotoxicity in anesthetized rabbit assessed as effect on QRS interval at 30 mg/kg, iv administered as 10 mins infusion measured up to 60 mins post dose by electrophysiology assay; format: toxicity, organism-based, Oryctolagus cuniculus; details: in vivo
[24] = Cardiotoxicity in rabbit heart assessed as change in heart rate at 10 uM perfused for 20 mins measured for 1 min by electrophysiology method relative to control; format: toxicity, tissue-based, Oryctolagus cuniculus
[25] = Cytotoxicity against human HepG2 cells assessed as decrease in cell viability
[26] = Clearance in cynomolgus monkey plasma at 3 mg/kg, iv administered as 5 mins infusion measured up to 24 hrs post dose by LC/MS/MS analysis; format: ADME, organism-based, Macaca fascicularis
[27] = Cardiotoxicity in anesthetized rabbit assessed as effect on PR interval at 30 mg/kg, iv administered as 10 mins infusion measured up to 60 mins post dose by electrophysiology assay; format: toxicity, organism-based, Oryctolagus cuniculus; details: in vivo
Hepatitis C virus [28] = assay: Antiviral activity against HCV genotype 1a H77 in HCV replicon cells assessed as reduction in viral RNA replication by luciferase reporter gene assay
Salmonella typhimurium [29] = assay: Genotoxicity in Salmonella typhimurium in absence of S9 fraction by Ames test; format: toxicity, organism-based; details: salmonella enterica subsp. enterica serovar typhimurium
[30] = Cardiotoxicity in dog assessed as effect on sinoatrial node recovery time at 30 to 100 mg/kg administered as single dose by electrophysiology assay; format: toxicity, organism-based, Canis lupus familiaris; details: in vivo
[31] = Half life in Beagle dog plasma at 1 mg/kg, iv administered as 5 mins infusion by LC/MS/MS analysis; format: ADME, organism-based, Canis lupus familiaris
[32] = Toxicity in cynomolgus monkey assessed as gastrointestinal irritation at 10 mg/kg, po administered through gavage; format: organism-based, Macaca fascicularis; details: in vivo
[33] = Inhibition of recombinant full length HCV genotype 5a SA13 NS3/4A protease preincubated for 30 mins followed by substrate addition measured by FRET assay; parameters: species or system Hepatitis C virus SA13
Genome polyprotein = Genome polyprotein (GB virus-B, UniProt Q69422); assay: Inhibition of GBV-B NS3 protease
[34] = Oral bioavailability in cannulated Sprague-Dawley rat plasma at 15 mg/kg administered via gavage measured up to 24 hrs post dose by LC/MS/MS analysis; format: ADME, organism-based
[35] = Half life in cynomolgus monkey plasma at 3 mg/kg, iv administered as 5 mins infusion by LC/MS/MS analysis; format: ADME, organism-based, Macaca fascicularis
[36] = Clearance in Beagle dog plasma at 1 mg/kg, iv administered as 5 mins infusion measured up to 24 hrs post dose by LC/MS/MS analysis; format: ADME, organism-based, Canis lupus familiaris
[37] = Cardiotoxicity in dog assessed as effect on PR interval at 30 to 100 mg/kg administered as single dose by electrophysiology assay; format: toxicity, organism-based, Canis lupus familiaris; details: in vivo
[38] = Oral bioavailability in Beagle dog plasma at 3 mg/kg administered via gavage measured up to 24 hrs post dose by LC/MS/MS analysis; format: ADME, organism-based, Canis lupus familiaris; details: beagle, plasma
[39] = Inhibition of recombinant full length HCV genotype 1b J4L6S NS3/4A protease preincubated for 30 mins followed by substrate addition measured by FRET assay; parameters: species or system Hepatitis C virus subtype 1b
[40] = Inhibition of recombinant full length HCV genotype 2b HC-J8 NS3/4A protease preincubated for 30 mins followed by substrate addition measured by FRET assay; parameters: species or system Hepatitis C virus subtype 2b

Sequence of Genome polyprotein (Q69422 941-1564 limits assumed): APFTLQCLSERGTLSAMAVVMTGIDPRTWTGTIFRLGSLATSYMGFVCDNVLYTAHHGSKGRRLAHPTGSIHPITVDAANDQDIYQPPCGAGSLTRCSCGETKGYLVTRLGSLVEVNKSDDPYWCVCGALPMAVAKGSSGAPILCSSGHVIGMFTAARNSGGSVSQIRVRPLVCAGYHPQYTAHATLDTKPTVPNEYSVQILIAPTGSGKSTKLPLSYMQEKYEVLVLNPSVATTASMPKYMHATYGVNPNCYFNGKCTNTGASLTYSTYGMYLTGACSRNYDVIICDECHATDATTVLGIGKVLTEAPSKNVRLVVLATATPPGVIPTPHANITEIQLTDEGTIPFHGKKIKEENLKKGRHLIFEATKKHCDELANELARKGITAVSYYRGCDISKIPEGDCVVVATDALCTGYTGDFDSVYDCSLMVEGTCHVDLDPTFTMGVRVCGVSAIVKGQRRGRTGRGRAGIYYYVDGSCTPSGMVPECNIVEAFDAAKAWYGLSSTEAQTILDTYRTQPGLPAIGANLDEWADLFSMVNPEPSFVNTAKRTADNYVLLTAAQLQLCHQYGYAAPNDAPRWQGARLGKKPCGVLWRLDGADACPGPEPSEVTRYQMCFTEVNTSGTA

With `COc1cnc(O[C@@H]2C[C@@H](C(=O)N[C@]3(C(=O)NS(=O)(=O)C4CC4)C[C@H]3C3CC3)N(C(=O)[C@@H](NC(=O)O[C@H](C)C(F)(F)F)C3CCCCC3)C2)c2cc(Cl)ccc12` the Activity [1] was “Non-Toxic”, the Activity (Salmonella typhimurium [2]) was “Non-Toxic” and the IC50 [3] was 1.5 nM. The concentration at 24 h [4] was 51 µM, the concentration at 1 h [5] was 204 µM and the Activity [6] was “Non-Toxic”. For the same compound, the half-life [7] was 1.08 h, the EC50 (Hepatitis C virus [8]) was 136 nM and the Activity [9] was “Non-Toxic”. The Activity [10] was -3%, the Activity [11] was “Non-Toxic” and the AUC at 24 h [12] was 21.1 µM·h. It also gave an IC50 (Neutrophil elastase) of 21000 nM, an IC50 [13] of 38 nM and a CC50 [14] of 8000 to 14000 nM. The CC50 [15] was 8000 to 14000 nM, the EC50 [16] was 2.8 nM and the Activity [17] was “Toxic”. For the same compound, the IC50 [18] was 6 nM, the EC50 [19] was 562 nM and the Activity [20] was “Non-Toxic”. The CC50 [21] was 8000 to 14000 nM, the half-life [22] was 8.6 h and the Activity [23] was “Non-Toxic”. For the same compound, the Activity [24] was -11%, the CC50 [25] was 8000 to 14000 nM and the clearance [26] was 9.4 mL/min/kg. For the same compound, the Activity [27] was “Non-Toxic”, the EC50 (Hepatitis C virus [28]) was 4.5 nM and the Activity (Salmonella typhimurium [29]) was “Non-Toxic”. For the same compound, the Activity [30] was “Non-Toxic”, the half-life [31] was 5.1 h and the Activity [32] was “Non-Toxic”. The IC50 [33] was 4.1 nM, the IC50 (Genome polyprotein) was > 25000 nM and the bioavailability [34] was 86.4%. The half-life [35] was 6.1 h, the clearance [36] was 4.3 mL/min/kg and the Activity [37] was “Non-Toxic”. The bioavailability [38] was 57.5%, the IC50 [39] was 1.6 nM and the IC50 [40] was 220 nM.

From ChEMBL document CHEMBL3861981 (J Med Chem, 2016)
